Experimental data published in patent US9663496B2, “AMPK-activating heterocyclic compounds and methods for using the same” (Rigel Pharmaceuticals, Inc., priority 2010, dated 2017).

Target: AMPK
Experiment: AMPK activation, enzyme-linked immunosorbent assay
Type: biochemical
Conditions: EC50 for AMPK activation, ELISA
Outline: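 Activation by each compound is measured using a conventional commercial immunoassay kit.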

| Structure (SMILES) | EC50 [nM] |
| --- | --- |
| O=C(c1ccc(Nc2ccc(-c3ccccc3)cc2)nc1)N1CCN(Cc2ccc(F)cc2)CC1 [Compound 37, (6-(4-phenylphenylamino)pyridin-3-yl)(4-(4-fluorobenzyl)piperazin-1-yl)methanone] | 5000 to 10000 |
| N#Cc1ccc(CN2CCC(NC(=O)c3ccc(C(=O)N4CCC(Oc5ccc(C#N)cc5)CC4)cn3)CC2)cc1 [Compound 135, N-(1-(4-cyanobenzyl)piperidin-4-yl)-5-(4-(4-cyanophenoxy)piperidine-1-carbonyl)picolinamide] | < 500 |
| N#Cc1ccc(CN2CC[C@@H](NC(=O)c3ccc(C(=O)N4CCN(Cc5ccc(F)cc5)CC4)cn3)C2)cc1 [Compound 118, (R)-N-(1-(4-cyanobenzyl)pyrrolidin-3-yl)-5-(4-(4-fluorobenzyl)piperazine-1-carbonyl)picolinamide] | < 500 |
| O=C(c1ccc(C(=O)N2CCN(Cc3ccc(F)cc3)CC2)nc1)N1CCN(Cc2ccc(F)cc2)CC1 [Compound 3, pyridine-2,5-diylbis((4-(4-fluorobenzyl)piperazin-1-yl)methanone)] | 500 to 1000 |
| CC(=O)c1ccc(Oc2ccc(NC(=O)c3ccc(C(=O)N4CCC(C(=O)c5ccc(F)cc5F)CC4)nc3)cn2)cc1 [Compound 464, N-(6-(4-acetylphenoxy)pyridin-3-yl)-6-(4-(2,4-difluorobenzoyl)piperidine-1-carbonyl)nicotinamide] | < 500 |
| N#Cc1ccc(CN2CCC(NC(=O)c3ccc(C(=O)N4CCC(Oc5ccc([N+](=O)[O-])cc5)CC4)nc3)CC2)cc1 [Compound 363, N-(1-(4-cyanobenzyl)piperidin-4-yl)-6-(4-(4-nitrophenoxy)piperidine-1-carbonyl)nicotinamide] | < 500 |
| N#Cc1ccc(CN2CCC(NC(=O)c3ccc(C(=O)N4CCC(Oc5ccc(S(=O)(=O)C(F)(F)F)cc5)CC4)cn3)CC2)cc1 [Compound 415, N-(1-(4-cyanobenzyl)piperidin-4-yl)-5-(4-(4-(trifluoromethylsulfonyl)phenoxy)piperidine-1-carbonyl)picolinamide] | < 500 |
| CSc1ccc(C(=O)C2CCN(C(=O)c3ccc(C(=O)NC4CCN(Cc5ccc(C#N)cc5)CC4)nc3)CC2)cc1 [Compound 372, N-(1-(4-cyanobenzyl)piperidin-4-yl)-5-(4-(4-(methylthio)benzoyl)piperidine-1-carbonyl)picolinamide] | < 500 |
| COc1ccc(CN2CCC(NC(=O)c3ccc(C(=O)N4CCC(Oc5ccc(F)cc5F)CC4)nc3)CC2)cc1 [Compound 344, 6-(4-(2,4-difluorophenoxy)piperidine-1-carbonyl)-N-(1-(4-methoxybenzyl)piperidin-4-yl)nicotinamide] | < 500 |
| COc1ccc(C(=O)C2CCN(C(=O)c3ccc(C(=O)N[C@H]4CC[C@@H](Oc5ccc(F)cc5)CC4)nc3)CC2)cc1 [Compound 311, N-((cis)-4-(4-fluorophenoxy)cyclohexyl)-5-(4-(4-methoxybenzoyl)piperidine-1-carbonyl)picolinamide] | < 500 |
| CC(=O)Nc1cccc(OC2CCN(C(=O)c3ccc(C(=O)Nc4ccc(Oc5ccc(F)cc5)nc4)cn3)CC2)c1 [Compound 414, 6-(4-(3-acetamidophenoxy)piperidine-1-carbonyl)-N-(6-(4-fluorophenoxy)pyridin-3-yl)nicotinamide] | 1000 to 5000 |
| N#Cc1ccc(CN2CCC(NC(=O)c3ccc(C(=O)N4CCC(Oc5cccc(NC(=O)C6CC6)c5)CC4)nc3)CC2)cc1 [Compound 431, N-(1-(4-cyanobenzyl)piperidin-4-yl)-6-(4-(3-(cyclopropanecarboxamido)phenoxy)piperidine-1-carbonyl)nicotinamide] | 500 to 1000 |
| CC(C)(c1ccc(F)cc1)N1CCN(C(=O)c2ccc(C(=O)NC3CCN(Cc4ccc(C#N)cc4)CC3)nc2)CC1 [Compound 268, N-(1-(4-cyanobenzyl)piperidin-4-yl)-5-(4-(2-(4-fluorophenyl)propan-2-yl)piperazine-1-carbonyl)picolinamide] | < 500 |
| COc1ccc(CN2CCC(NC(=O)c3ccc(C(=O)N4CCN(Cc5ccc(F)cc5)CC4)nc3)CC2)cc1 [Compound 327, 6-(4-(4-fluorobenzyl)piperazine-1-carbonyl)-N-(1-(4-methoxybenzyl)piperidin-4-yl)nicotinamide] | < 500 |
| CC(=O)Nc1ccc(OC2CCN(C(=O)c3ccc(C(=O)NC4CCN(Cc5ccc(C#N)cc5)CC4)cn3)CC2)cc1 [Compound 366, 6-(4-(4-acetamidophenoxy)piperidine-1-carbonyl)-N-(1-(4-cyanobenzyl)piperidin-4-yl)nicotinamide] | < 500 |
| CS(=O)(=O)c1ccc(N2CCC(NC(=O)c3ccc(C(=O)N4CCC(Oc5ccc(C#N)cc5)CC4)nc3)CC2)cc1 [Compound 420, 6-(4-(4-cyanophenoxy)piperidine-1-carbonyl)-N-(1-(4-(methylsulfonyl)phenyl)piperidin-4-yl)nicotinamide] | 1000 to 5000 |
| COc1ccc(C(=O)C2CCN(C(=O)c3ccc(C(=O)N[C@@H]4CCN(Cc5ccc(OC(F)(F)F)cc5)C[C@H]4F)cn3)CC2)cc1 (relative stereo) [Compound 350, N-((trans)-3-fluoro-1-(4-(trifluoromethoxy)benzyl)piperidin-4-yl)-6-(4-(4-methoxybenzoyl)piperidine-1-carbonyl)nicotinamide] | < 500 |

| Structure (SMILES) | EC50 [nM] |
| --- | --- |
| CS(=O)(=O)c1ccc(OC2CCN(C(=O)c3ccc(C(=O)NC4CCN(Cc5cc(F)cc(F)c5)CC4)cn3)CC2)cc1 [Compound 236, N-(1-(3,5-difluorobenzyl)piperidin-4-yl)-6-(4-(4-(methylsulfonyl)phenoxy)piperidine-1-carbonyl)nicotinamide] | < 500 |
| COc1cccc(CN2CCC(NC(=O)c3ccc(C(=O)N4CCC(S(=O)(=O)c5ccc(F)cc5)CC4)nc3)CC2)c1 [Compound 475, 6-(4-(4-fluorophenylsulfonyl)piperidine-1-carbonyl)-N-(1-(3-methoxybenzyl)piperidin-4-yl)nicotinamide] | 1000 to 5000 |
| O=C(NCc1ccccc1)c1ccc(C(=O)N2CCN(Cc3ccccc3)CC2)cn1 [Compound 116, N-benzyl-5-(4-benzylpiperazine-1-carbonyl)picolinamide] | 1000 to 5000 |
| COc1ccc(CN2CCC(NC(=O)c3ccc(C(=O)N4CCC(C(=O)c5ccc(N6CCCC6)cc5)CC4)nc3)CC2)cc1 [Compound 439, N-(1-(4-methoxybenzyl)piperidin-4-yl)-6-(4-(4-(pyrrolidin-1-yl)benzoyl)piperidine-1-carbonyl)nicotinamide] | < 500 |
| N#Cc1ccc(CN2CCC(NC(=O)c3ccc(C(=O)N4CCC(Oc5ccncc5)CC4)cn3)CC2)cc1 [Compound 269, N-(1-(4-cyanobenzyl)piperidin-4-yl)-5-(4-(pyridin-4-yloxy)piperidine-1-carbonyl)picolinamide] | < 500 |
| O=C(NC1CCN(C(=O)C2CCCCC2)CC1)c1ccc(C(=O)N2CCN(Cc3ccc(F)cc3)CC2)cn1 [Compound 7, N-(1-(cyclohexanecarbonyl)piperidin-4-yl)-5-(4-(4-fluorobenzyl)piperazine-1-carbonyl)picolinamide] | < 500 |
| N#Cc1ccc(CN2CCC3(CC2)CCN(c2ccc(C(=O)N4CCN(Cc5ccc(F)cc5)CC4)cn2)C3)cc1 [Compound 31, 4-((2-(5-(4-(4-fluorobenzyl)piperazine-1-carbonyl)pyridin-2-yl)-2,8-diazaspiro[4.5]decan-8-yl)methyl)benzonitrile] | < 500 |
| COc1ccc(CN2CCC(NC(=O)c3ccc(C(=O)N4CCC(C(=O)c5ccc(F)c(F)c5)CC4)cn3)CC2)cc1 [Compound 329, 5-(4-(3,4-difluorobenzoyl)piperidine-1-carbonyl)-N-(1-(4-methoxybenzyl)piperidin-4-yl)picolinamide] | < 500 |
| O=C(Nc1ccc(C(=O)N2CCN(Cc3ccc(F)cc3)CC2)cn1)c1ccc(-c2ccccc2)cc1 [Compound 170, N-(5-(4-(4-fluorobenzyl)piperazine-1-carbonyl)pyridin-2-yl)biphenyl-4-carboxamide] | > 10000 |
| COc1ccc(CN2CCC(NC(=O)c3ccc(C(=O)N4CCN(Cc5ccc(F)cc5)CC4)cn3)CC2)cc1 [Compound 117, 5-(4-(4-fluorobenzyl)piperazine-1-carbonyl)-N-(1-(4-methoxybenzyl)piperidin-4-yl)picolinamide] | < 500 |
| COc1ccc(C(=O)C2CCN(C(=O)c3ccc(C(=O)NC4CCN(Cc5cc(F)cc(F)c5)CC4)nc3)CC2)cc1 [Compound 287, N-(1-(3,5-difluorobenzyl)piperidin-4-yl)-5-(4-(4-methoxybenzoyl)piperidine-1-carbonyl)picolinamide] | < 500 |
| CS(=O)(=O)c1ccc(C(=O)C2CCN(C(=O)c3ccc(C(=O)NC4CCN(Cc5ccc(N6CCCC6)cc5)CC4)nc3)CC2)cc1 [Compound 233, 5-(4-(4-(methylsulfonyl)benzoyl)piperidine-1-carbonyl)-N-(1-(4-(pyrrolidin-1-yl)benzyl)piperidin-4-yl)picolinamide] | < 500 |
| N#Cc1ccc(CN2CCC(NC(=O)c3ccc(C(=O)N4CCN(S(=O)(=O)c5ccc(F)cc5)CC4)cn3)CC2)cc1 [Compound 78, N-(1-(4-cyanobenzyl)piperidin-4-yl)-5-(4-(4-fluorophenylsulfonyl)piperazine-1-carbonyl)picolinamide] | < 500 |
| O=C(N[C@@H]1CCNC[C@@H]1F)c1ccc(C(=O)N2CCN(Cc3ccc(F)cc3)CC2)cn1 (relative stereo) [Compound 102, 5-(4-(4-fluorobenzyl)piperazine-1-carbonyl)-N-(cis-3-fluoropiperidin-4-yl)picolinamide] | 5000 to 10000 |
| CC(=O)c1ccc(Oc2ccc(NC(=O)c3ccc(C(=O)N4CCC(Oc5ccc(C(=O)N(C)C)cc5)CC4)nc3)cn2)cc1 [Compound 488, N-(6-(4-acetylphenoxy)pyridin-3-yl)-6-(4-(4-(dimethylcarbamoyl)phenoxy)piperidine-1-carbonyl)nicotinamide] | < 500 |
| N#Cc1ccc(OC2CCN(C(=O)c3ccc(C(=O)NC4CCN(Cc5cc(F)cc(F)c5)CC4)cn3)CC2)cc1 [Compound 322, 6-(4-(4-cyanophenoxy)piperidine-1-carbonyl)-N-(1-(3,5-difluorobenzyl)piperidin-4-yl)nicotinamide] | < 500 |
